Experimental data from patent US12660819B2, “Herbicidal derivatives” (SYNGENTA CROP PROTECTION AG, priority 2020, dated 2026).

Tests used:
Format in all cases: in vivo
[1] = tested on: Ipomoea hederacea (IPOHE); assay: Pre-emergence Test (glasshouse, percentage damage to the plant); conditions: 1000 g/ha unless otherwise stated, five-point scale
[2] = tested on: Abutilon theophrasti (ABUTH); assay: Post-emergence Test (glasshouse, percentage damage to the plant); conditions: post-emergence spray, 1000 g/ha unless otherwise stated, evaluated after 13 days
Method in brief: (§1)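 Sown pots; spray 1000 g/ha (unless stated) in acetone/water 50:50 + 0.5% Tween 20; glasshouse 24/16 °C, 14 h light, 65% RH; watered twice daily; % damage read at 13 days, scored 1–5.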

[3] = tested on: Amaranthus retoflexus (AMARE); assay: as above; conditions: post-emergence spray, 1000 g/ha unless otherwise stated, evaluated after 13 days
Method in brief: as §1

[4] = tested on: Zea mays (ZEAMX); assay: as above; conditions: post-emergence spray, 1000 g/ha unless otherwise stated, evaluated after 13 days
Method in brief: (§2)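 Percentage damage to the plant, assessed 13 days after application and scored 1–5 in 20% bands. Pots sown in standard soil received compound at 1000 g/ha unless otherwise stated, sprayed under 24/16 °C, 14 h light, 65% humidity.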

[5] = tested on: Echinochloa crus-galli (ECHCG); assay: as above; conditions: post-emergence spray, 1000 g/ha unless otherwise stated, evaluated after 13 days
Method in brief: as §1

[6] = tested on: Setaria faberi (SETFA); assay: as above; conditions: post-emergence spray, 1000 g/ha unless otherwise stated, evaluated after 13 days
Method in brief: as §2

[7] = tested on: Ipomoea hederacea (IPOHE); assay: as above; conditions: post-emergence spray, 1000 g/ha unless otherwise stated, evaluated after 13 days
Method in brief: as §2

[8] = tested on: Amaranthus retoflexus (AMARE); assay: Pre-emergence Test (glasshouse, percentage damage to the plant); conditions: 1000 g/ha unless otherwise stated, five-point scale
[9] = tested on: Setaria faberi (SETFA); assay: as above; conditions: 1000 g/ha unless otherwise stated, five-point scale
[10] = tested on: Zea mays (ZEAMX); assay: as above; conditions: 1000 g/ha unless otherwise stated, five-point scale
[11] = tested on: Echinochloa crus-galli (ECHCG); assay: as above; conditions: 1000 g/ha unless otherwise stated, five-point scale
[12] = tested on: Abutilon theophrasti (ABUTH); assay: as above; conditions: 1000 g/ha unless otherwise stated, five-point scale

Row | SMILES | percentage damage to the plant, IPOHE [1] | Post-emergence Test ABUTH, percentage damage to the plant (five-point scale) [2] | Post-emergence Test AMARE, percentage damage to the plant (five-point scale) [3] | Post-emergence Test ZEAMX, percentage damage to the plant (five-point scale) [4] | Post-emergence Test ECHCG, percentage damage to the plant (five-point scale) [5] | Post-emergence Test SETFA, percentage damage to the plant (five-point scale) [6] | Post-emergence Test IPOHE, percentage damage to the plant (five-point scale) [7] | percentage damage to the plant, AMARE [8] | percentage damage to the plant, SETFA [9] | percentage damage to the plant, ZEAMX [10] | percentage damage to the plant, ECHCG [11] | percentage damage to the plant, ABUTH [12]
1 | CCOc1ccc(-c2c(C)n(CC)c(-c3ccc(Cl)c(Cl)c3)c(C(=O)O)c2=O)cc1 [Compound 96, 2-(3,4-dichlorophenyl)-5-(4-ethoxyphenyl)-1-ethyl-6-methyl-4-oxo-pyridine-3-carboxylic acid] | 1 (1=0-20%) | 4 (4=61-80%) | 1 (1=0-20%) | 2 (2=21-40%) | 2 (2=21-40%) | 3 (3=41-60%) | 3 (3=41-60%) | 1 (1=0-20%) | 2 (2=21-40%) | 1 (1=0-20%) | 1 (1=0-20%) | 1 (1=0-20%)
2 | CCn1c(C)c(-c2cccc(C(F)F)c2)c(=O)c(C(=O)O)c1-c1ccc(Cl)c(Cl)c1 [Compound 106, 2-(3,4-dichlorophenyl)-5-[3-(difluoromethyl)phenyl]-1-ethyl-6-methyl-4-oxo-pyridine-3-carboxylic acid] | 1 (1=0-20%) | 3 (3=41-60%) | 3 (3=41-60%) | 1 (1=0-20%) | 1 (1=0-20%) | 1 (1=0-20%) | 2 (2=21-40%) | 1 (1=0-20%) | 1 (1=0-20%) | 1 (1=0-20%) | 1 (1=0-20%) | 2 (2=21-40%)
3 | CCn1c(C)c(-c2cnccn2)c(=O)c(C(=O)O)c1-c1ccc(Cl)cn1 [Compound 168, 2-(5-chloro-2-pyridyl)-1-ethyl-6-methyl-4-oxo-5-pyrazin-2-yl-pyridine-3-carboxylic acid] | 0 | 0 | 0 | 0 | 0 | 0 | 0 | 0 | 0 | 0 | 0 | 0
4 | CCn1c(C)c(-c2ccc(F)c(C#N)c2)c(=O)c(C(=O)O)c1-c1ccc(Cl)c(Cl)c1 [Compound 91, 5-(3-cyano-4-fluoro-phenyl)-2-(3,4-dichlorophenyl)-1-ethyl-6-methyl-4-oxo-pyridine-3-carboxylic acid] | 3 (3=41-60%) | 3 (3=41-60%) | 3 (3=41-60%) | 2 (2=21-40%) | 4 (4=61-80%) | 4 (4=61-80%) | 3 (3=41-60%) | 2 (2=21-40%) | 4 (4=61-80%) | 1 (1=0-20%) | 4 (4=61-80%) | 2 (2=21-40%)
5 | CCn1c(C)c(-c2ccc(Cl)cc2)c(=O)c(C(=O)O)c1-c1ccc(F)cc1F [Compound 130, 5-(4-chlorophenyl)-2-(2,4-difluorophenyl)-1-ethyl-6-methyl-4-oxo-pyridine-3-carboxylic acid] | 3 (3=41-60%) | 3 (3=41-60%) | 3 (3=41-60%) | 2 (2=21-40%) | 3 (3=41-60%) | 4 (4=61-80%) | 3 (3=41-60%) | 3 (3=41-60%) | 5 (5=81-100%) | 3 (3=41-60%) | 4 (4=61-80%) | 3 (3=41-60%)
6 | CCn1c(C)c(-c2cncc(F)c2)c(=O)c(C(=O)O)c1-c1ccc(Cl)c(Cl)c1 [Compound 85, 2-(3,4-dichlorophenyl)-1-ethyl-5-(5-fluoro-3-pyridyl)-6-methyl-4-oxo-pyridine-3-carboxylic acid] | 1 (1=0-20%) | 3 (3=41-60%) | 1 (1=0-20%) | 1 (1=0-20%) | 1 (1=0-20%) | 3 (3=41-60%) | 1 (1=0-20%) | 1 (1=0-20%) | 4 (4=61-80%) | 1 (1=0-20%) | 1 (1=0-20%) | 2 (2=21-40%)
7 | CCn1c(C)c(-c2cc(C)cc(C#N)c2)c(=O)c(C(=O)O)c1-c1ccc(Cl)c(Cl)c1 [Compound 80, 5-(3-cyano-5-methyl-phenyl)-2-(3,4-dichlorophenyl)-1-ethyl-6-methyl-4-oxo-pyridine-3-carboxylic acid] | 1 (1=0-20%) | 3 (3=41-60%) | 3 (3=41-60%) | 1 (1=0-20%) | 1 (1=0-20%) | 3 (3=41-60%) | 1 (1=0-20%) | 1 (1=0-20%) | 4 (4=61-80%) | 1 (1=0-20%) | 1 (1=0-20%) | 1 (1=0-20%)
8 | CCn1c(C)c(-c2ccc(COC)cc2)c(=O)c(C(=O)O)c1-c1ccc(Cl)c(Cl)c1 [Compound 111, 2-(3,4-dichlorophenyl)-1-ethyl-5-[4-(methoxymethyl)phenyl]-6-methyl-4-oxo-pyridine-3-carboxylic acid] | 1 (1=0-20%) | 4 (4=61-80%) | 2 (2=21-40%) | 2 (2=21-40%) | 3 (3=41-60%) | 4 (4=61-80%) | 2 (2=21-40%) | 1 (1=0-20%) | 5 (5=81-100%) | 3 (3=41-60%) | 4 (4=61-80%) | 2 (2=21-40%)
9 | CCn1c(C)c(-c2ccc(C(F)(F)F)c(Cl)c2)c(=O)c(C(=O)O)c1-c1ccc(Cl)c(Cl)c1 [Compound 64, 5-[3-chloro-4-(trifluoromethyl)phenyl]-2-(3,4-dichlorophenyl)-1-ethyl-6-methyl-4-oxo-pyridine-3-carboxylic acid] | 1 (1=0-20%) | 1 (1=0-20%) | 1 (1=0-20%) | 1 (1=0-20%) | 1 (1=0-20%) | 1 (1=0-20%) | 1 (1=0-20%) | 2 (2=21-40%) | 1 (1=0-20%) | 1 (1=0-20%) | 1 (1=0-20%) | 1 (1=0-20%)
